# Test results reported in article PMC10791743, “Selective CK1α degraders exert antiproliferative activity against a broad range of human cancer cell lines” (Nature Communications, 2024).
# Values joined by “and” are separate entries in the source; they are usually repeats but may differ in a detail not shown here. Equal entries are not always repeated.
# How the values were obtained:
# [1] = system: panel of 9 human cancer cell lines (HD-MB03, MB004, MB002, MHH-CALL4, MOLM-13, TF-1, HEL, OCI-AML3, AML193); assay: Molecular glue library screening, CellTiter-Glo cell viability, 72 h; format: cell-based; details: CTG, dose-response
# Description: We screened our molecular glue library (3630 compounds) against a panel of 9 pediatric cancer cell lines to identify molecules displaying cell-selective sensitivities. In addition to the four cell lines we previously described (MB002, MB004, HD-MB03, and MHHCALL-4)[27], we included five additional AML cell lines (MOLM-13, TF-1, HEL, OCI-AML3, and AML193) to cover a broader range of genetic diversity and cancer vulnerabilities. The library screening was performed in high throughput (384-well plates) by incubating the cells with compounds for 72 h and assessing cell viability via CellTiter-Glo (CTG) in a dose–response manner, as reported previously.
# The primary screen was performed in 384-well format using the CellTiter Glo (CTG) luminescent cell viability assay (Promega) as previously described. 3630 compounds from the St. Jude proprietary molecular glue library were screened against 9 human cancer cell lines (HD-MB03, MB004, MB002, MHH-CALL4, MOLM-13, TF-1, HEL, OCI-AML3, AML193). Each cell line was cultured in the complete medium recommended by the vendor and seeded in Corning 8804 BC white 384-well assay plates at densities of 1000, 1000, 1500, 7500, 1250, 156, 625, 1250, 1250 cells per well for HD-MB03, MB004, MB002, MHH-CALL4, MOLM-13, TF-1, HEL, OCI-AML, AML193, respectively. After overnight incubation at 37 °C in a humidified 5% CO2 incubator, cells were treated with compounds in dose–response format using a Pintool on a Biomek FX^P Laboratory Automation Workstation (Beckman Coulter). After 72 h of incubation, cell proliferation was assessed using a CellTiter-Glo (CTG) luminescent cell viability assay (Promega) according to the manufacturer’s instructions. Luminescence signal was measured using an EnVision plate reader (PerkinElmer).
# [2] = Pharmacokinetics in female CD1 mice; format: in vivo, mouse; details: female CD1 mice
# Description: Three mice were housed in each cage. […] Temperature and humidity were recorded by an auto-controlled data logger system. All the animals were provided a laboratory rodent diet (Altromin, Germany). Reverse osmosis water treated with ultraviolet light was provided ad libitum. Total 27 mice (n = 9/group) were divided into three groups as Group 1, Group 2, and Group 3 with a sparse sampling design (3 mice/time points). […] The formulation vehicle for IV was 5% v/v NMP, 5% v/v Solutol HS-15 and 90% v/v Normal saline, and for PO & IP was 10%v/v NMP, 10%v/v Solutol HS-15. 50%v/v PEG-400 and 30%v/v HPβCD (20%w/v) in saline. […] Immediately after blood collection, plasma was harvested by centrifugation at 12,300×g, 10 min at 4 °C and samples were stored at −70 ± 10 °C until bioanalysis. Concentrations of SJ3149 in mouse plasma samples were determined by fit-for-purpose LC–MS/MS method. Non-Compartmental-Analysis tool of Phoenix WinNonlin® (Version 8.3) was used to assess the pharmacokinetic parameters. Peak plasma concentration (Cmax) and time for the peak plasma concentration (Tmax) were the observed values. The area under the concentration–time curve (AUClast) was calculated by the linear trapezoidal rule. The terminal elimination rate constant, ke was determined by regression analysis of the linear terminal portion of the log plasma concentration-time curve. Clearance was estimated as Dose/AUCinf and Vss as CL*MRT.
# [3] = system: MOLM-13 cells; assay: MOLM-13 cell viability assay (CTG, 72 h); format: cell-based, human; design: key to Cell viability in MOLM-13 cells / cell viability, dose-response replicate values: % viability = 100 − % activity, normalized to controls; details: for cell viability, dose-response replicate values: MOLM-13 WT, listed as CC-220
# Description: The primary screen was performed in 384-well format using the CellTiter Glo (CTG) luminescent cell viability assay (Promega) as previously described. […] After overnight incubation at 37 °C in a humidified 5% CO2 incubator, cells were treated with compounds in dose–response format using a Pintool on a Biomek FX^P Laboratory Automation Workstation (Beckman Coulter). […] Luminescence signal was measured using an EnVision plate reader (PerkinElmer). […]
# number per well and incubated overnight at 37 °C in a humidified 5 % CO2 incubator. Compounds were transferred to the assay plate from a dose-response plate using a Labcyte Echo 650 Acoustic Liquid Handler (Beckman Coulter , USA). […]
# using Promega’s CellTiter-Glo reagent according to the manufacturer’s recommendation.
# Luminescence was measured on the Envision plate reader (PerkinElmer, USA). Raw luminescence relative light unit (RLU) values for each compound at each concentration were normalized to obtain % activity using the following equation (1): 100 × [(mean(negctrl) – compound)/(mean (negctrl) – mean (posctrl))]. The % activity was converted to % viability using the following equation (2):
# (100 – % activity), and then pooled from replicate experiments prior to fitting. Here, negctrl and posctrl refer to the negative (DMSO) and positive controls (staurosporine) on each plate. Dose-response curves were fit to the Hill equation using the GraphPad Prism (version 10). […]
# [4] = single intraperitoneal 50 mg/kg, 0.5 hr
# [5] = single intraperitoneal 50 mg/kg, 1 hr
# [6] = single intraperitoneal 50 mg/kg, 2 hr
# [7] = single intraperitoneal 50 mg/kg, 6 hr
# [8] = single intraperitoneal 50 mg/kg, 8 hr
# [9] = single intraperitoneal 50 mg/kg, 24 hr
smiles,measurement,setting,value
Cc1ccc(NC(=O)NCc2ccc3c(c2)CN(C2CCC(=O)NC2=O)C3=O)cc1Cl (stereo not shown) [CC-885],Cell viability across the panel of AL and MB cell lines,[1],cytotoxic to all cell lines in the panel
O=C1CCC(N2C(=O)c3ccc(NS(=O)(=O)c4ccccc4OC(F)(F)F)cc3C2=O)C(=O)N1 (stereo not shown) [SJ6986],Cell viability across the panel of AL and MB cell lines,[1],cytotoxic to all cell lines in the panel
O=C1CCC(N2Cc3cc(Nc4noc5ccccc45)ccc3C2=O)C(=O)N1 (stereo not shown) [SJ001043149],"Plasma Concentration, Mean",[2]; [4],4253.68 ng/mL
same,"Plasma Concentration, individual animal",[2]; [4],2474.57 ng/mL and 2615.2 ng/mL and 7671.27 ng/mL
same,"Plasma Concentration, Mean",[2]; [5],3788.89 ng/mL
same,"Plasma Concentration, individual animal",[2]; [5],3408.76 ng/mL and 3558.82 ng/mL and 4399.09 ng/mL
same,"Plasma Concentration, Mean",[2]; [6],3436.75 ng/mL
same,"Plasma Concentration, individual animal",[2]; [6],3844.39 ng/mL and 3042 ng/mL and 3423.87 ng/mL
same,"Plasma Concentration, individual animal","[2]; single intraperitoneal 50 mg/kg, 4 hr",37.79e ng/mL and 613.87 ng/mL and 1233.77 ng/mL
same,"Plasma Concentration, Mean","[2]; single intraperitoneal 50 mg/kg, 4 hr, average of two values",22172 ng·h/mL
same,"Plasma Concentration, Mean",[2]; [7],336.83 ng/mL
same,"Plasma Concentration, individual animal",[2]; [7],224.92 ng/mL and 422.53 ng/mL and 363.03 ng/mL
same,"Plasma Concentration, Mean",[2]; [8],626.18 ng/mL
same,"Plasma Concentration, individual animal",[2]; [8],584.82 ng/mL and 376.02 ng/mL and 917.7 ng/mL
same,"Plasma Concentration, individual animal","[2]; single intraperitoneal 50 mg/kg, 12 hr",1.02e ng/mL and 119 ng/mL and 188.95 ng/mL
same,"Plasma Concentration, Mean","[2]; single intraperitoneal 50 mg/kg, 12 hr, average of two values",3695.5 ng·h/mL
same,"Plasma Concentration, Mean",[2]; [9],14.86 ng/mL
same,"Plasma Concentration, individual animal",[2]; [9],16.86 ng/mL and 11.98 ng/mL and 15.73 ng/mL
same,"Plasma Concentration, Mean","[2]; single intravenous 3 mg/kg, 0.08 hr",3540.18 ng/mL
same,"Plasma Concentration, individual animal","[2]; single intravenous 3 mg/kg, 0.08 hr, 3 mg/kg",3522.19 ng/mL and 3164.19 ng/mL and 3934.15 ng/mL
same,"Plasma Concentration, Mean","[2]; single intravenous 3 mg/kg, 0.5 hr",548.51 ng/mL
same,"Plasma Concentration, individual animal","[2]; single intravenous 3 mg/kg, 0.5 hr, 3 mg/kg",590.56 ng/mL and 721 ng/mL and 333.96 ng/mL
same,"Plasma Concentration, individual animal","[2]; single intravenous 3 mg/kg, 1 hr, 3 mg/kg",89.11 ng/mL and 82.85 ng/mL and 465.12e ng/mL
same,"Plasma Concentration, Mean","[2]; single intravenous 3 mg/kg, 1 hr, average of two values",2064 ng·h/mL
same,"Plasma Concentration, Mean","[2]; single intravenous 3 mg/kg, 2 hr",21.37 ng/mL
same,"Plasma Concentration, individual animal","[2]; single intravenous 3 mg/kg, 2 hr, 3 mg/kg",26.85 ng/mL and 22.73 ng/mL and 14.53 ng/mL
same,"Plasma Concentration, Mean","[2]; single intravenous 3 mg/kg, 4 hr",5.15 ng/mL
same,"Plasma Concentration, individual animal","[2]; single intravenous 3 mg/kg, 4 hr, 3 mg/kg",2.92 ng/mL and 9.75 ng/mL and 2.78 ng/mL
same,"Plasma Concentration, individual animal","[2]; single intravenous 3 mg/kg, 8 hr, LLOQ 1.00 ng/mL, 3 mg/kg",BLQ and 2.43e ng/mL
same,"Plasma Concentration, individual animal","[2]; single intravenous 3 mg/kg, 12 hr, LLOQ 1.00 ng/mL",BLQ
same,"Plasma Concentration, individual animal","[2]; single intravenous 3 mg/kg, 24 hr, LLOQ 1.00 ng/mL",BLQ
same,"Plasma Concentration, Mean","[2]; single oral 50 mg/kg, 0.5 hr",1802.13 ng/mL
same,"Plasma Concentration, individual animal","[2]; single oral 50 mg/kg, 0.5 hr, 50 mg/kg",1597.22 ng/mL and 2494.42 ng/mL and 1314.74 ng/mL
same,"Plasma Concentration, Mean","[2]; single oral 50 mg/kg, 1 hr",635.82 ng/mL
same,"Plasma Concentration, individual animal","[2]; single oral 50 mg/kg, 1 hr, 50 mg/kg",300.99 ng/mL and 799.29 ng/mL and 807.18 ng/mL
same,"Plasma Concentration, individual animal","[2]; single oral 50 mg/kg, 2 hr, 50 mg/kg",207.45 ng/mL and 268.31 ng/mL and 77.73e ng/mL
same,"Plasma Concentration, Mean","[2]; single oral 50 mg/kg, 2 hr, average of two values",5709.1 ng·h/mL
same,"Plasma Concentration, Mean","[2]; single oral 50 mg/kg, 4 hr",35.43 ng/mL
same,"Plasma Concentration, individual animal","[2]; single oral 50 mg/kg, 4 hr, 50 mg/kg",57.72 ng/mL and 27.57 ng/mL and 21 ng/mL
same,"Plasma Concentration, individual animal","[2]; single oral 50 mg/kg, 6 hr, 50 mg/kg",5.43e ng/mL and 17.18 ng/mL and 23.01 ng/mL
same,"Plasma Concentration, Mean","[2]; single oral 50 mg/kg, 6 hr, average of two values",482.4 ng·h/mL
same,"Plasma Concentration, individual animal","[2]; single oral 50 mg/kg, 8 hr, 50 mg/kg",6.11 ng/mL and 16.97 ng/mL and 1.39e ng/mL
same,"Plasma Concentration, Mean","[2]; single oral 50 mg/kg, 8 hr, average of two values",277 ng·h/mL
same,"Plasma Concentration, Mean","[2]; single oral 50 mg/kg, 12 hr",3.98 ng/mL
same,"Plasma Concentration, individual animal","[2]; single oral 50 mg/kg, 12 hr, 50 mg/kg",3.44 ng/mL and 4.89 ng/mL and 3.6 ng/mL
same,"Plasma Concentration, individual animal","[2]; single oral 50 mg/kg, 24 hr, LLOQ 1.00 ng/mL, 50 mg/kg",2.03e ng/mL and BLQ
"O=C1CC[C@H](N2Cc3c(OCc4ccc(CN5CCOCC5)cc4)cccc3C2=O)C(=O)N1 [iberdomide, reference compound]",Effect on MOLM-13 cell viability (cytotoxicity),[3]; CTG 72 h,very little effect
same,"cell viability, dose-response replicate values",[3]; Concentration 0.00053416,104.205 and 101.273 and 105.756
same,"cell viability, dose-response replicate values",[3]; Concentration 0.00160248,116.013 and 103.828 and 106.347
same,"cell viability, dose-response replicate values",[3]; Concentration 0.00480744,99.9393 and 109.095 and 93.7856
same,"cell viability, dose-response replicate values",[3]; Concentration 0.0144223,103.939 and 96.4969 and 110.266
same,"cell viability, dose-response replicate values",[3]; Concentration 0.0432669,111.735 and 98.8709 and 109.735
same,"cell viability, dose-response replicate values",[3]; Concentration 0.129801,112.307 and 99.7991 and 100.005
same,"cell viability, dose-response replicate values",[3]; Concentration 0.389402,95.4783 and 95.9453 and 89.9456
same,"cell viability, dose-response replicate values",[3]; Concentration 1.16821,93.0089 and 93.9287 and 92.6782
same,"cell viability, dose-response replicate values",[3]; Concentration 3.50462,93.5137 and 89.0055 and 86.6893
same,"cell viability, dose-response replicate values",[3]; Concentration 10.5139,95.8132 and 82.1796 and 91.7179
Nc1cccc2c1C(=O)N(C1CCC(=O)NC1=O)C2=O (stereo not shown) [pomalidomide],Cell viability across the panel of AL and MB cell lines,[1],inactive
